Source: patent US6528685B2 (Teva Pharmaceutical Industries, Ltd., priority 1994, dated 2003)
Where a name gives a salt, the structure may show the parent alone.

Experiments:
mice [1] = assay: Maximal electroshock (MES) model, mice; conditions: mice; for MICE MES ED50: intraperitoneal (i.p.) administration
rats [2] = assay: Maximal electroshock (MES) model, rats; conditions: rats, oral (p.o.) administration; median effective dose
rats [3] = assay: Neurotoxicity in rats, positional sense test and gait stance test; conditions: rats p.o.; positional sense test and gait stance test
Experimental: (§1) Neurotoxicity of the claimed agents was also assessed in mice (i.p. administration) by the rotorod ataxia test and/or in rats (p.o. administration) by positional sense test and gait stance test. […] The term quantitating the neurotoxicity is the medial neurological toxic dose (TD50), was determined in the above tests.

mice [4] = assay: Neurotoxicity in mice, rotorod ataxia test; conditions: mice i.p.; rotorod ataxia test
Experimental: as §1

male ICR albino mice = assay: Hypobaric hypoxic model in mice, survival time; format: in vivo, mouse
Experimental: Desiccator B was disconnected and allowed to equilibrate with room air whilst desiccator A was evacuated to a pressure of 100 mmHg. […] The survival time from the moment of induction of hypoxia to the time of cessation of respiration was recorded for each mouse for a maximum of 15 minutes after which time room air was reintroduced to desiccator B. Survivors were monitored for signs of lethargy or vitality.
Effect of drug treatment was assessed as the percent of the survival time of the drug treated group with respect to the saline injected or vehicle injected control group. Control groups were run twice, before and after each experimental group and consisted of 12-16 mice in groups of 4 mice. Each experimental group always consisted of 4 mice to ensure a constant residual volume of oxygen in all tests. The effect of each dose of test drug was determined in duplicate i.e. two groups of 4 mice.
All drugs were administered intra-peritoneally at the dose indicated one hour prior to exposure to hypoxia.

[5] = 50 mg/kg ip one hour prior to hypoxia
[6] = 100 mg/kg ip one hour prior to hypoxia

Compound: NC(=O)CNC1CCCc2ccccc21 (racemic) [Compound 4, (rac)-N-(2-Acetamido)-1-aminotetralin]
- MICE MES ED50 (mice [1]): <100 mg/kg

Compound: CC(C)(C)OC(=O)NCCCC(=O)NC1CCc2ccccc21 (racemic) [Compound 6, (rac)-N-(N-Boc-4-aminobutyryl)-1-aminoindan]
- melting point: 118 to 120 °C

Compound: O=CNC1CCc2ccccc21 (racemic) [Compound 8, (rac)-N-Formyl-1-aminoindan]
- melting point: 105 °C

Compound: CCCC(=O)NC1CCc2ccccc21 (racemic) [Compound 11, (rac)-N-Butyryl-1-aminoindan]
- melting point: 84 to 85 °C

Compound: CN(C)C1CCc2ccccc21 (racemic) [Compound 15, (rac)-N,N-Dimethyl-1-aminoindan.HCl]
- RATS MES 50 (rats [2]): 50 mg/kg
- RATS TD50 (rats [3]): >50 mg/kg
- MICE TD50 (mice [4]): <100 mg/kg

Compound: c1ccc(CNC2CCc3ccccc32)cc1 (racemic) [Compound 16, (rac)-N-Benzyl-1-aminoindan.HCl]
- RATS MES 50 (rats [2]): 50 mg/kg
- MICE MES ED50 (mice [1]): <50 mg/kg
- RATS TD50 (rats [3]): >50 mg/kg

Compound: CC(=O)NC1CCc2cccc(C)c21 (racemic) [Compound 20, (rac)-7-Methyl-N-acetyl-1-aminoindan]
- melting point: 166 to 167 °C

Compound: COc1ccc2c(c1)C(N)CC2 (racemic) [Compound 25, (rac)-6-Methoxy-1-aminoindan.HCl]
- RATS MES 50 (rats [2]): 50 mg/kg
- MICE MES ED50 (mice [1]): <100 mg/kg
- MICE TD50 (mice [4]): >100 mg/kg

Compound: COc1ccc2c(c1)C(NC(C)=O)CC2 (racemic) [Compound 26, (rac) 6-methoxy-N-acetyl-1-aminoindan]
- melting point: 131 to 132 °C

Compound: Cc1cccc2c1C(N)CC2 (racemic) [Compound 28, (rac)-7-Methyl-1-aminoindan.HCl]
- RATS MES 50 (rats [2]): <50 mg/kg
- MICE MES ED50 (mice [1]): <100 mg/kg
- RATS TD50 (rats [3]): >50 mg/kg
- MICE TD50 (mice [4]): <100 mg/kg
- PROTECTION % OF RESPECTIVE CONTROL (male ICR albino mice; [5]): 361 ± 106%
- PROTECTION % OF RESPECTIVE CONTROL (male ICR albino mice; [6]): 941 ± 34%

Compound: COc1ccc2c(c1OC)CCC2N (racemic) [Compound 31, (rac)-4,5-Dimethoxy-1-aminoindan.HCl]
- activity in the MES model in mice, in words (mice [1]): showed activity
- MICE MES ED50 (mice [1]): <100 mg/kg
- RATS TD50 (rats [3]): >50 mg/kg
- MICE TD50 (mice [4]): <100 mg/kg

Compound: NC1CCc2ccc(O)cc21 (racemic) [Compound 34, (rac)-6-Hydroxy-1-aminoindan.HCl]
- activity in the MES model in mice, in words (mice [1]): showed activity
- MICE MES ED50 (mice [1]): <300 mg/kg
- MICE TD50 (mice [4]): >300 mg/kg

Compound: Cc1ccc2c(c1)CCC2N (racemic) [Compound 38, (rac)-5-Methyl-1-aminoindan.HCl]
- RATS MES 50 (rats [2]): 50 mg/kg
- MICE MES ED50 (mice [1]): <100 mg/kg
- RATS TD50 (rats [3]): >50 mg/kg
- MICE TD50 (mice [4]): <100 mg/kg

Compound: C[C@@H]1Cc2ccccc2[C@H]1N (racemic) [Compound 39, (rac)-trans-2-Methyl-1-aminoindan.HCl]
- RATS MES 50 (rats [2]): <50 mg/kg
- MICE MES ED50 (mice [1]): <100 mg/kg
- RATS TD50 (rats [3]): >50 mg/kg
- MICE TD50 (mice [4]): <100 mg/kg
- PROTECTION % OF RESPECTIVE CONTROL (male ICR albino mice; [5]): 600 ± 213%
- PROTECTION % OF RESPECTIVE CONTROL (male ICR albino mice; [6]): 798 ± 249%

Compound: C[C@H]1Cc2ccccc2[C@H]1N (racemic) [Compound 40, (rac)-cis-2-Methyl-1-aminoindan.HCl]
- RATS MES 50 (rats [2]): <50 mg/kg
- MICE MES ED50 (mice [1]): <100 mg/kg
- RATS TD50 (rats [3]): >50 mg/kg
- MICE TD50 (mice [4]): <100 mg/kg
- PROTECTION % OF RESPECTIVE CONTROL (male ICR albino mice; [5]): 374 ± 190%
- PROTECTION % OF RESPECTIVE CONTROL (male ICR albino mice; [6]): 569 ± 173%

Compound: Cc1cc(C)c2c(c1)C(C)CC2N.Cl (racemic) [Compound 41, (rac)-3,5,7-Trimethyl-1-aminoindan.HCl]
- PROTECTION % OF RESPECTIVE CONTROL (male ICR albino mice; [5]): 187 ± 41%
- PROTECTION % OF RESPECTIVE CONTROL (male ICR albino mice; [6]): 644 ± 316%

Compound: NC1CCc2cccc(O)c21 (racemic) [Compound 42, (rac)-7-Hydroxy-1-aminoindan.HCl]
- RATS MES 50 (rats [2]): <50 mg/kg
- RATS TD50 (rats [3]): >50 mg/kg
- PROTECTION % OF RESPECTIVE CONTROL (male ICR albino mice; [5]): 179 ± 170%
- PROTECTION % OF RESPECTIVE CONTROL (male ICR albino mice; [6]): 228 ± 119%

Compound: c1ccc2c(c1)CCC2NC1CCc2ccccc21 (racemic) [Compound 43, (rac)-N,N-Di-(1-indanyl)amine.HCl]
- RATS MES 50 (rats [2]): <50 mg/kg
- MICE MES ED50 (mice [1]): <100 mg/kg
- RATS TD50 (rats [3]): >50 mg/kg
- MICE TD50 (mice [4]): <100 mg/kg

Compound: O=C(NC1CCc2ccccc21)c1ccccc1 (racemic) [Compound 46, (rac)-N-Benzoyl-1-aminoindan]
- melting point: 140 to 142 °C

Compound: COc1cccc(C(=O)NC2CCc3ccccc32)c1 (racemic) [Compound 52, (rac)-N-(m-Anisoyl)-1-aminoindan]
- melting point: 140 °C

Compound: O=C(NC1CCc2ccccc21)c1ccc(F)cc1 (racemic) [Compound 53, (rac)-N-(4′-Fluorobenzoyl)-1-aminoindan]
- melting point: 109 to 110 °C

Compound: Cc1ccc(C(=O)NC2CCc3ccccc32)cc1 (racemic) [Compound 54, (rac)-N-(p-Toluoyl)-1-aminoindan]
- melting point: 140 °C

Compound: CC(=O)NC1CCc2ccc(C#N)cc21 (racemic) [Compound 61, (rac)-6-Cyano-N-acetyl-1-aminoindan]
- melting point: 175 to 176 °C

Compound: CCOC(=O)c1ccc2c(c1)C(NC(C)=O)CC2 (racemic) [Compound 63, (rac)-6-Ethoxycarbonyl-N-acetyl-1-aminoindan]
- melting point: 146 to 147 °C

Compound: CCCN(CCC)S(=O)(=O)c1ccc(C(=O)NC2CCc3ccccc32)cc1 (racemic) [Compound 69, (rac)-N-(4-(di-n-Propylsulfamoyl)benzoyl)-1-aminoindan]
- melting point: 124 to 125 °C

Compound: COc1ccc2c(c1OC)CC[C@H]2NC(C)=O [Compound 21, (R)-4,5-Dimethoxy-N-acetyl-1-aminoindan]
- melting point: 175 °C

Compound: NC1Cc2ccccc21 (stereo not drawn) [Compound 27, 1-Aminobenzocyclobutene.HCl]
- RATS MES 50 (rats [2]): <50 mg/kg
- MICE MES ED50 (mice [1]): <100 mg/kg
- RATS TD50 (rats [3]): >50 mg/kg
- MICE TD50 (mice [4]): >100 mg/kg

Compound: COc1ccc2c(c1OC)CC[C@@H]2N.Cl [Compound 30, (S)-4,5-Dimethoxy-1-aminoindan.HCl]
- PROTECTION % OF RESPECTIVE CONTROL (male ICR albino mice; [5]): 265 ± 284%
- PROTECTION % OF RESPECTIVE CONTROL (male ICR albino mice; [6]): 379 ± 202%

Compound: CCCC(CCC)C(=O)NC1CCc2ccccc21 (stereo not drawn) [Compound 47, N-(2-n-Propylpentanoyl)-1-aminoindan]
- melting point: 133 to 134 °C

Compound: CC(=O)NC1CCc2ccc([N+](=O)[O-])cc21 (stereo not drawn) [Compound 58, N-Acetyl-6-nitro-1-aminoindan]
- melting point: 179 °C

Compound: O=C(N[C@@H]1CCc2ccccc21)C(F)(F)F [Compound 68, (R)-N-Trifluoroacetyl-1-aminoindan]
- melting point: 152 to 153 °C

Compound: O=C(CCCCC(=O)NC1CCc2ccccc21)NC1CCc2ccccc21 (stereo not drawn) [Compound 73, N,N′-Bis-(1-indanyl)adipamide]
- melting point: 227 °C

Compound: O=C(CCCCC(=O)N[C@@H]1CCc2ccccc21)N[C@@H]1CCc2ccccc21 [Compound 74, N,N′-Bis-((R)-1-indanyl)adipamide]
- melting point: 244 to 247 °C

Compound: O=C(CCC(=O)N[C@@H]1CCc2ccccc21)N[C@@H]1CCc2ccccc21 [Compound 75, N,N′-Bis-((R)-1-indanyl)succinamide]
- melting point: 266 to 269 °C

Compound: C#CCN[C@H]1CCc2ccccc21.Cl [G, (S)-N-propargyl-1-aminoindan HCl salt]
- RATS MES 50 (rats [2]): 57 mg/kg

Compound: NC1CCc2ccc(F)cc21 (stereo not drawn) [I, 6-fluoro-1-aminoindan]
- RATS MES 50 (rats [2]): <50 mg/kg

Compound: N[C@H]1CCc2ccc(F)cc21 [K, (S)-6-fluoro-1-aminoindan]
- activity in the MES model in mice, in words (mice [1]): showed activity

Compound: C#CCNC1CCc2ccc(F)cc21 (stereo not drawn) [L, 6-fluoro-N-propargyl-1-aminoindan]
- activity in the MES model in mice, in words (mice [1]): showed activity
